Measurements reported in patent US11059800B2, “Dehydroleucodine derivatives and uses thereof” (Bioventures, LLC, priority 2013, dated 2021).

Key:
Kasumi-1 = test: Cytotoxicity, annexin V/7-AAD viability by flow cytometry, Kasumi-1; assay type: cell-based, human; settings: Kasumi-1, 48 hours, drug range tested 1.25-160 μM
Procedure: (§1) In order to assess the structure-activity relationship of DHL and its derivatives, DHL and its derivatives were evaluated against eight human leukemia cell lines. Cell lines were cultured in Iscove's Modified Dulbecco's Medium (IMDM) supplemented with 10%˜20% fetal bovine serum (FBS) according to culture conditions indicated by ATCC and 1% penicillin/streptomycin (Pen/Strep) at 37° C. and 5% CO2. The cells were seeded into 96-well plates and kept at a concentration of 0.5 million cells per mL. The samples were treated with DHL, Leucodine, DHL-Morpholine, DHL-Proline, DHL-Piperidine, and PTL at varying concentrations in triplicates. Cell viability was determined after incubating for 48 hours. The cells were stained with annexin V-fluorescein isothiocyanate or phycoeritrine (FITC/PE) and 7-aminoactinomycin (7-AAD) to detect phosphatidylserine exposition and cell permeability, respectively. At least 50,000 events were recorded per condition on either an LSR-II or LSR-Fortessa flow cytometer (BD Biosciences). Data analysis was conducted using FlowJo 9.6 software for Mac OS X (TreeStar). Cells that were negative for annexin V and 7-AAD were scored as viable.

THP-1 = test: Cytotoxicity, annexin V/7-AAD viability by flow cytometry, THP-1; assay type: cell-based, human; settings: THP-1, 48 hours, drug range tested 1.25-160 μM
Procedure: as §1

KG-1 = test: Cytotoxicity, annexin V/7-AAD viability by flow cytometry, KG-1; assay type: cell-based, human; settings: KG-1, 48 hours, drug range tested 1.25-160 μM
Procedure: In order to assess the structure-activity relationship of DHL and its derivatives, DHL and its derivatives were evaluated against eight human leukemia cell lines. Cell lines were cultured in Iscove's Modified Dulbecco's Medium (IMDM) supplemented with 10%˜20% fetal bovine serum (FBS) according to culture conditions indicated by ATCC and 1% penicillin/streptomycin (Pen/Strep) at 37° C. and 5% CO2. […] Cell viability was determined after incubating for 48 hours.

MV4-11 = test: Cytotoxicity, annexin V/7-AAD viability by flow cytometry, MV4-11; assay type: cell-based, human; settings: MV4-11, 48 hours, drug range tested 1.25-160 μM
Procedure: as §1

MOLM-13 = test: Cytotoxicity, annexin V/7-AAD viability by flow cytometry, MOLM-13; assay type: cell-based, human; settings: MOLM-13, 48 hours, drug range tested 1.25-160 μM
Procedure: as §1

U-937 = test: Cytotoxicity, annexin V/7-AAD viability by flow cytometry, U-937; assay type: cell-based, human; settings: U-937, 48 hours, drug range tested 1.25-160 μM
Procedure: as §1

HL-60 = test: Cytotoxicity, annexin V/7-AAD viability by flow cytometry, HL-60; assay type: cell-based, human; settings: HL-60, 48 hours, drug range tested 1.25-160 μM
Procedure: as §1

TUR = test: Cytotoxicity, annexin V/7-AAD viability by flow cytometry, TUR; assay type: cell-based, human; settings: 48 hours, drug range tested 1.25-160 μM
Procedure: as §1

HMOX1 (Heme oxygenase 1) = test: Quantitative PCR of HMOX1 in MOLM-13 or MV-411 cells; assay type: cell-based; settings: 20 μM, 6 hours, MOLM-13 and MV-411 cells
Procedure: (§2) (FIG. 8A) Graphical representation of the fold changes of HMOX-1 in MOLM-13 cells. Cells were seeded at 0.5 million cells per milliliter and subject to 20 μM of DHL, leucodine, DHL-proline, DHL-piperidine, DHL-morpholine, or parthenolide for 6 hours. RNA was then extracted and quantitative PCR was performed. Experiments were performed in triplicates. Lines represent mean for each specimen, with error bars representing the SD. Fold change was calculated by the delta-delta Ct method. […] (FIG. 8D) Immunoblot for MOLM-13 cells after 6 hours of treatment with either DHL or PTL with 10 or 20 μM. Blot was probed for phospho-p65 and p65 antibodies. Total p65 is shown as the loading control.
(§3) (FIG. 9A) Graphical representation of the fold changes of HMOX-1 in MV-411 cells. Cells were seeded at 0.5 million cells per milliliter and subject to 20 μM of DHL, leucodine, DHL-proline, DHL-piperidine, DHL-morpholine, or parthenolide for 6 hours. RNA was then extracted and quantitative PCR was performed. Experiments were performed in triplicates. Lines represent mean for each specimen, with error bars representing the SD. Fold change was calculated by the delta-delta Ct method. (FIG. 9B) Graphical representation of the fold changes of HSPA1A in MV-411 cells, with the same experimental setup and analysis as FIG. […].
(§4) To compare these intracellular effects of DHL and its derivatives, quantitative PCR was performed (FIG. 8 and FIG. 9). MOLM-13 or MV-411 cells were seeded at 0.5 million cells per milliliter. Cells were treated for 6 hours with 20 μM of DHL, Leucodine, DHL-Morpholine, DHL-Proline, DHL-Piperidine or PTL, and then collected. Total RNA was extracted using the Qiashredder and Qiagen Rneasy Mini kits. […] Quantitative PCR was performed using probes for HMOX-1 (Hs01110251_m1), HSPA1A (Hs00359163_s1), and NFKB1 (Hs00765730_m1). […] Single-plex real-time PCR was performed in triplicates in a StepOne plus RealTime PCR system and analyzed with the StepOne Software. Fold change was calculated using the 2-DDCT method described by Livak and Schmittgen.

HSPA1A = test: Quantitative PCR of HSPA1A in MOLM-13 or MV-411 cells; assay type: cell-based; settings: 20 μM, 6 hours, MOLM-13 and MV-411 cells
Procedure: as §2, §3, §4

[1] = tested on: eight human leukemia cell lines
Procedure: Cell lines were cultured in Iscove's Modified Dulbecco's Medium (IMDM) supplemented with 10%˜20% fetal bovine serum (FBS) according to culture conditions indicated by ATCC and 1% penicillin/streptomycin (Pen/Strep) at 37° C. and 5% CO2. The cells were seeded into 96-well plates and kept at a concentration of 0.5 million cells per mL. […] Cell viability was determined after incubating for 48 hours. The cells were stained with annexin V-fluorescein isothiocyanate or phycoeritrine (FITC/PE) and 7-aminoactinomycin (7-AAD) to detect phosphatidylserine exposition and cell permeability, respectively. At least 50,000 events were recorded per condition on either an LSR-II or LSR-Fortessa flow cytometer (BD Biosciences). Data analysis was conducted using FlowJo 9.6 software for Mac OS X (TreeStar). Cells that were negative for annexin V and 7-AAD were scored as viable.

NF-κB = test: Quantitative PCR of NF-κB transcript in MOLM-13 and MV-411 cells; assay type: cell-based; settings: 20 μM, 6 hours
Procedure: as §2
as §4, with “collected.” for “collected. Total RNA was extracted using the Qiashredder and Qiagen Rneasy Mini kits.”

| SMILES | LD50 (Kasumi-1) | LD50 (THP-1) | LD50 (KG-1) | LD50 (MV4-11) | LD50 (MOLM-13) | LD50 (U-937) | LD50 (HL-60) | LD50 (TUR) | HMOX1 expression, fold change (HMOX1 (Heme oxygenase 1)) | HSPA1A expression, fold change (HSPA1A) | anti-leukemic activity / in vitro cytotoxicity [1] | NF-κB transcript levels (NF-κB) |
| --- | --- | --- | --- | --- | --- | --- | --- | --- | --- | --- | --- | --- |
| CC1=CC(=O)C2=C(C)CCC3C(CN4CCOCC4)C(=O)OC3C12 (stereo not drawn) [DHL-Morpholine] | >160 µM | 54.4 µM | 129 µM | 21.1 µM | >160 µM | 74.7 µM | 166 µM | >160 µM | – | – | – | – |
| CC1=CC(=O)C2=C(C)CCC3C(CN4CCCCC4)C(=O)OC3C12 (stereo not drawn) [DHL-Piperidine] | >160 µM | 59.3 µM | 182 µM | 66.9 µM | 52.3 µM | >160 µM | 96.5 µM | >160 µM | – | – | – | – |
| CC1=CC(=O)C2=C(C)CCC3C(CN4CCCC4C(=O)O)C(=O)OC3C12 (stereo not drawn) [DHL-Proline] | 28.1 µM | 26.7 µM | 97.7 µM | 23.3 µM | 20.6 µM | 33.0 µM | 50.2 µM | 35.9 µM | upregulated HMOX1 and HSPA1A the most | upregulated HMOX1 and HSPA1A the most | most potent derivative | – |
| CC1=CC(=O)C2=C(C)CC[C@@H]3[C@H](OC(=O)[C@H]3C)[C@@H]12 [Leucodine, leucodine] | >160 µM | 121 µM | >160 µM | >160 µM | >160 µM | >160 µM | >160 µM | 105 µM | upregulated | upregulated | not found to be active | slightly downregulated |
